According to patent US10105552B2, “Formulations of histone deacetylase inhibitor and uses thereof” (Pharmacyclics LLC, priority 2009, dated 2018):

Tests used:
[1] = test system: Neuroblastoma cell lines and patient-derived primary neuroblastoma cultures; test: Neuroblastoma cell viability, calcein AM assay; format: cell-based; conditions: 48 hours treatment
Protocol: Neuroblastoma cell lines and patient-derived primary neuroblastoma cultures were treated with bortezomib, Compound 1 alone or a combination of both agents for 48 hours. Cells were also treated with HDAC inhibitors vorinostat, sodium butyrate, and valproic acid and viability was assessed by calcein AM assays. mRNA from treated cells was evaluated at 6 and 24 hours using U133+ mRNA expression arrays and Ingenuity analysis. Dichlorofluorescein (DCF) was used to measure reactive oxygen species (ROS). Cell viability assays were repeated in the presence of N-acetylcysteine (NAC). Western blot evaluated caspase-3 and PARP cleavage. Nude mice were injected with 10^7 SMS-KCNR cells subcutaneously and treated with daily doses of 0.5 mg/kg bortezomib, 12.5 mg/kg Compound 1, or a combination of the two agents. Tumors were measured and imaged twice per week.

[2] = Clinical trial PK of Compound 1 solution, oral and IV dosing; conditions: human, in vivo, humans
Protocol: In clinical trials involving humans with cancer, Compound 1 in solution form was administered at 2 mg/kg as a single oral dose and as multiple 2-hour IV infusion doses.
Compound 1 appears to be preferentially absorbed in the intestines.

[3] = Phase 1 trial, safety/tolerability and response by oral dosing schedule; format: in vivo
Protocol: This is a Phase 1 dose-escalation study of the safety, pharmacokinetics, and pharmacodynamics of Compound 1, HCl administered orally in patients with advanced cancer.
In the Phase 1 dose escalation study, up to 7 cohorts will receive Compound 1, HCl orally at doses starting at 30 mg/m^2, approximately 4-6 hours apart, up to 90 mg/m^2, 2 or 3 times a day according to 3 different dosing schedules within 28 day cycle (5 days of dosing followed by 2 days of no dosing; 5 days of dosing followed by 9 days of no dosing; 7 days of dosing followed by 7 days of no dosing) until the maximum tolerated dose is reached.
The doses were given at the same time each day. […] The two doses were given at the same time each day, with the second dose being administered approximately 4 to 6 hours from the first dose.
In the event that a patient experiences a treatment-related decrease in platelets to <25,000 per mm^2, the severity of the thrombocytopenia may be ameliorated by dosing in cycles consisting 5 consecutive days of oral dosing followed by 9 consecutive days without dosing.

tumor cell lines = test: Preclinical activity against tumor cell lines; format: cell-based; conditions: many tumor cell lines
[4] = test system: lung, colon, prostate, pancreatic and brain tumors; test: Preclinical mouse tumor models; format: in vivo
[5] = test system: primary human tumors from patients with colon, ovarian, lung and many hematological cancers; test: Ex vivo activity in primary human tumors; format: cell-based
RAD51 = test: Pre-clinical models, DNA repair gene expression

| Structure (SMILES) | IC50 [1] [nM] | bioavailability ([2]; 2 mg/kg, immediate release capsules or an oral solution) [%] | bioavailability ([2]; from AUC0-∞ oral vs IV, 2 mg/kg solution) [%] | therapeutic effect ([3]; immediate release capsule, 2 or 3 consecutive doses each 4 to 6 hours apart on dosing days) | incidence of Grade 4 thrombocytopenia (platelet count <25,000 per mm^2) ([3]; in vivo, po) | pharmacodynamic response ([3]; solid tumor and lymphoma patients, cycles of 7 days oral dosing then 7 days without dosing) | activity against tumor cell lines (tumor cell lines) | efficacy in mouse tumor models [4] | ex vivo activity in primary human tumors [5] | effect on RAD51 (and other DNA repair genes) (RAD51) |
| --- | --- | --- | --- | --- | --- | --- | --- | --- | --- | --- |
| CC(C)C[C@H](NC(=O)[C@H](Cc1ccccc1)NC(=O)c1cnccn1)B(O)O [bortezomib, reference compound] | < 50 |  |  |  |  |  |  |  |  |  |
| CN(C)Cc1c(C(=O)NCCOc2ccc(C(=O)NO)cc2)oc2ccccc12 [Compound 1, N-hydroxy-4-{2-[3-(N,N-dimethylaminomethyl)benzofuran-2-ylcarbonylamino]ethoxy}-benzamide] | < 200 | ~27 | ~27 | achieved | limited incidence | achieved | active | efficacious | active | able to turn off RAD51 |
